This note sets out measurements from ChEMBL document CHEMBL5143673, “The evaluation of N-propargylamine-2-aminotetralin as an inhibitor of monoamine oxidase” (Bioorg Med Chem Lett, 2022).

By IC50 is commonly meant the midpoint of a concentration-inhibition curve.

The target in series [1] is T1, Amine oxidase [flavin-containing] A (Rattus norvegicus, UniProt P21396).
T1 sequence (P21396 whole entry): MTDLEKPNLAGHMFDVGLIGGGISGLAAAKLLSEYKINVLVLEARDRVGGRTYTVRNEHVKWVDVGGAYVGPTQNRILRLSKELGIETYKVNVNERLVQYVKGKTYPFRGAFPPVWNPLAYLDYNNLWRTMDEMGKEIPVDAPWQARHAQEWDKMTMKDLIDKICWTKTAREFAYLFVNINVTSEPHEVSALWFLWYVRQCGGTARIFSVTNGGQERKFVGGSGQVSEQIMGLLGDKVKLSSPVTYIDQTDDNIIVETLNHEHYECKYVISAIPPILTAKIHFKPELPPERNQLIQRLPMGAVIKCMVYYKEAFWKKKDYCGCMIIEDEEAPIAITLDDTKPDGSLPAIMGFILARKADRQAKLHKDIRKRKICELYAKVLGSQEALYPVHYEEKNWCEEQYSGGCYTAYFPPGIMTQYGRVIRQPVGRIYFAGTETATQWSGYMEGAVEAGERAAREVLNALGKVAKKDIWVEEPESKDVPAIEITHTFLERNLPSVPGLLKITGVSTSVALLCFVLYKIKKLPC
Kind of series: Inhibition of rat brain MAOA using kynuramine substrate by fluorescence spectrophotometry. It counts as toxicity.

Series [2] has as its target T2, Amine oxidase [flavin-containing] B (Rattus norvegicus, UniProt P19643).
T2 sequence (P19643 whole entry): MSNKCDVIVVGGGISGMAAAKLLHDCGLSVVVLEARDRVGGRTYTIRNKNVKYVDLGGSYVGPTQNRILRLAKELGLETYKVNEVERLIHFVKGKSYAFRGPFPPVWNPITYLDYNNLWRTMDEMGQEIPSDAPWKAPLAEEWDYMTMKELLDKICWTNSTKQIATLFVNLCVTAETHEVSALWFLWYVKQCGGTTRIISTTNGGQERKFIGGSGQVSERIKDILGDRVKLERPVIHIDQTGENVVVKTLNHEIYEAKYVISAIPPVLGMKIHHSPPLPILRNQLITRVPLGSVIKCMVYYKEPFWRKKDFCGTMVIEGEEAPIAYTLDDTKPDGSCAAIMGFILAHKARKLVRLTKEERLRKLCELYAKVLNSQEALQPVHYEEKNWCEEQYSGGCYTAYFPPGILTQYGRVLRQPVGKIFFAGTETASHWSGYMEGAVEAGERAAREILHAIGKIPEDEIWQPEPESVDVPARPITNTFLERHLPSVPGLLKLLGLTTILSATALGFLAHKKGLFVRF
In words: Inhibition of rat brain MAOB using kynuramine substrate by fluorescence spectrophotometry.

The target in series [3] is T3, Amine oxidase [flavin-containing] B (Homo sapiens, UniProt P27338).
T3 sequence (P27338 whole entry): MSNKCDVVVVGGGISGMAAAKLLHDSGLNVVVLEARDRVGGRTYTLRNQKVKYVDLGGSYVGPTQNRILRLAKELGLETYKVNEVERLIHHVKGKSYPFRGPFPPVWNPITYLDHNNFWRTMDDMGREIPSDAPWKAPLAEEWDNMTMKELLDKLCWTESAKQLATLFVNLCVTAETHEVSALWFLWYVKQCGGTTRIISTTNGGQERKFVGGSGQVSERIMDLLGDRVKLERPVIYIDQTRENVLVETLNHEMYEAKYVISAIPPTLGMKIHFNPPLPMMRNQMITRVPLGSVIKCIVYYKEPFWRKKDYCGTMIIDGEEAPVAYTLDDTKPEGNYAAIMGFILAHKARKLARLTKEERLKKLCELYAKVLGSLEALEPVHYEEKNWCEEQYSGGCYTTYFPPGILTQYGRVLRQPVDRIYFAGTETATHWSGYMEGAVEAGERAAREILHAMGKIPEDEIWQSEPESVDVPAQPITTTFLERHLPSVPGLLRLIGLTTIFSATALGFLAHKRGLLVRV
In words: Inhibition of human recombinant MAOB assessed as enzyme activity recovery level at 4 times IC50 using kynuramine substrate incubated for 15 mins followed by without dialysis by fluorescence spectrophotometry. The conditions noted are these: 0.25 h. Further details: scale not given: the % may be the effect or the level left.

In series [4] the target is T3, Amine oxidase [flavin-containing] B. In words: Inhibition of human recombinant MAOB assessed as enzyme activity recovery level at 4 times IC50 using kynuramine substrate incubated for 15 mins followed by 24 hrs dialysis by fluorescence spectrophotometry. Further details: scale not given: the % may be the effect or the level left. Particulars: 0.25 h.
The target of series [5] is T4, MAO-A (Homo sapiens, UniProt P21397).
T4 sequence (P21397 whole entry): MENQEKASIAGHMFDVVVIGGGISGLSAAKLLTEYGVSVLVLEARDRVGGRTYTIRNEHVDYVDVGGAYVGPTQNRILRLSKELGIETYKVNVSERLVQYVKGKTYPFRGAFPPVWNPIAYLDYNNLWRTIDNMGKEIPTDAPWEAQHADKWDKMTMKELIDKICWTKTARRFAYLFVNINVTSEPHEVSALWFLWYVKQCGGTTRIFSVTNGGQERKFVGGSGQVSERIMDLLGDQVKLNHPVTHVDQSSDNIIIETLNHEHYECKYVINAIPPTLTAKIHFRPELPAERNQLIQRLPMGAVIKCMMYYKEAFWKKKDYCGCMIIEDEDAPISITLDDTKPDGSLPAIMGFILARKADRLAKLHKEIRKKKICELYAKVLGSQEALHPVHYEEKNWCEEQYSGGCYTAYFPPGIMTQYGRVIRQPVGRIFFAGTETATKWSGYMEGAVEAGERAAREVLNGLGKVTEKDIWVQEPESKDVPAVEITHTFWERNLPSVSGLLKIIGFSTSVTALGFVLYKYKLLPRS
In words: Inhibition of human recombinant MAOA assessed as enzyme activity recovery level at 4 times IC50 using kynuramine substrate incubated for 15 mins followed by 24 hrs dialysis by fluorescence spectrophotometry. Particulars: probe kynuramine, read-out: Activity. Further details: scale not given: the % may be the effect or the level left. Type of series: toxicity.

The species named for the next series is Homo sapiens. In words: Selectivity index, ratio of IC50 for inhibition of human recombinant MAOA to IC50 for human recombinant MAOB.
For series [6], the target named is T4, MAO-A. In words: Resistance index, ratio of IC50 for toloxatone to IC50 for test compound for inhibition of human recombinant MAOA using kynuramine substrate incubated for 20 mins by fluorescence spectrophotometry. It counts as toxicity. Particulars: probe kynuramine, read-out: Ratio IC50.
Series [7] addresses T3, Amine oxidase [flavin-containing] B. Kind of series: Inhibition of human recombinant MAOB using kynuramine substrate incubated for 20 mins by fluorescence spectrophotometry.
Series [8] has the same target. Kind of series: Time dependent inhibition of human recombinant MAOB at 0.25 to 1.25 uM using kynuramine substrate by fluorescence spectrophotometry based L-B plot analysis.
In series [9] the target is T4, MAO-A. Kind of series: Inhibition of human recombinant MAOA assessed as enzyme activity recovery level at 4 times IC50 using kynuramine substrate incubated for 15 mins followed by without dialysis by fluorescence spectrophotometry. Type of series: toxicity. Further details: scale not given: the % may be the effect or the level left. The conditions noted are these: probe kynuramine, read-out: Activity.

The target in series [10] is T3, Amine oxidase [flavin-containing] B. In words: Time dependent inhibition of human recombinant MAOB at […] using kynuramine substrate incubated for 5 to 35 mins by fluorescence spectrophotometry. The conditions noted are these: TDE = time-dependent effect, time 5-35 min.
Series [11] shares this target. Kind of series: Time dependent inhibition of human recombinant MAOB at 0.25 to 1.25 uM using kynuramine substrate by fluorescence spectrophotometry based graphing of slopes of Lineweaver-Burk plots versus inhibitor concentration.
Series [12] deals with T5, Amine oxidase [flavin-containing] A (Homo sapiens, UniProt P21397).
T5 sequence (P21397 whole entry): T4 sequence (P21397 whole entry)
Kind of series: Inhibition of human recombinant MAOA using kynuramine substrate incubated for 20 mins by fluorescence spectrophotometry. Type of series: toxicity.

The species named for the next series is Rattus norvegicus. In words: Selectivity index, ratio of IC50 for inhibition of rat brain MAOA to IC50 for rat brain MAOB.
The target of series [13] is T4, MAO-A. In words: Inhibition of human recombinant MAOA assessed as enzyme activity recovery level using kynuramine substrate incubated for 15 mins followed by 24 hrs dialysis by fluorescence spectrophotometry. It counts as toxicity. Set-up: scale not given: the % may be the effect or the level left. The conditions noted are these: probe kynuramine, read-out: Activity.

As for `C#CCN(C)C1CCc2ccccc2C1` (racemic) [listing 1 of 2 here], the values for the IC50 in series [1] and in series [2] were 51 nM and 41 nM, respectively.

On to `C#CCNC1CCc2ccccc2C1` (racemic), for which the results for the Activity in series [3] and in [4] were 0.3% and 7.5%, respectively. For the same compound, the figures for the activity at 0.25 h at MAO-A [5] and on MAO-A [9] were 102% and 46%, respectively. Also, the Ratio IC50 in the series filed under Homo sapiens was 0.05. Besides, at MAO-A [6], the selectivity ratio at 20 min is 5. Moreover, the IC50 in series [7] was determined as 14600 nM; in series [12] it was 721 nM. In addition, the results for the Ki in series [8] and in series [11] were 460 nM and 435 nM, respectively. The TDI entry in series [10] was “Tde”.

On to `C#CCN(C)C1CCc2ccccc2C1` (racemic) [listing 2 of 2 here], for which the Ratio IC50 in the series filed under Rattus norvegicus was determined as 1.2.

With `C#CCN(C)C1CCc2ccccc2C1` (single isomer, unassigned; (+)) [listing 1 of 2 here], the IC50 in [1] turned out to be 140 nM; in [2] it was 16 nM.

In the case of `C#CCN(C)C1CCc2ccccc2C1` (single isomer, unassigned; (+)) [listing 2 of 2 here], in the series filed under Rattus norvegicus, the Ratio IC50 was 8.8.

Regarding `C#CCN(C)C1CCc2ccccc2C1` (single isomer, unassigned; (-)) [listing 1 of 2 here], the results for the IC50 in series [1] and in series [2] were 46 nM and 88 nM, respectively.

Take `C#CCN(C)C1CCc2ccccc2C1` (single isomer, unassigned; (-)) [listing 2 of 2 here]: the Ratio IC50 in the series listed under Rattus norvegicus is 0.5.

For `C#CCN(C)Cc1ccccc1` [PARGYLINE], the activity at 0.25 h on MAO-A [13] worked out at 0.9%.
